US6831079B1, “Vasopressin agonist formulation and process” (American Cyanamid Company, priority 1999, dated 2004)

Assays:
Vasopressin V2 = Vasopressin V2 (Rattus norvegicus, UniProt Q00788); experiment: Vasopressin V2 agonist effects in normal conscious water-loaded rats; format: in vivo; set-up: from tissue; host or cells: whole living Sprague-Dawley rat; the receptor is the animal's own (renal, by own knowledge); conditions: Sprague-Dawley (CD) rats, 10 mg/kg oral; for Osmolality (% Increase): change in osmolality as percent of control; for Urine Volume (% decrease): vs. control, urine collected four hours
Vasopressin V2, sequence (Q00788 whole entry): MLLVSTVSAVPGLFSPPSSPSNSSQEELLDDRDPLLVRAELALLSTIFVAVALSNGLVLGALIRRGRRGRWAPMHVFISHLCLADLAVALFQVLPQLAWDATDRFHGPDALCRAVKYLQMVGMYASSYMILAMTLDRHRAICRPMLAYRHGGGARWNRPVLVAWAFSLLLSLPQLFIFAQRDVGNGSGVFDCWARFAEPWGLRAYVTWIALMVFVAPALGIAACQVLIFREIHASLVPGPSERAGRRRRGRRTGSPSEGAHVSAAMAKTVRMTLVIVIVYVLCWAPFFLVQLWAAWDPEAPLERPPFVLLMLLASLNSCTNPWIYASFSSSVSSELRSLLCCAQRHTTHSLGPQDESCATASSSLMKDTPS
Description: Vasopressin V2 Agonist Effects of Test Compounds in Normal Conscious Water-loaded Rats
Male or female normotensive Sprague-Dawley rats (Charles River Laboratories, Inc., Kingston, N.Y.) of 350-500 g body weight were supplied with standard rodent diet (Purina Rodent Lab. Chow 5001) and water ad libitum. On the day of test, rats were placed individually into metabolic cages equipped with devices to separate the feces from the urine and containers for collection of urine. […] The vehicle used was 20% dimethylsulfoxide (DMSO) in 2.5% preboiled corn starch. Thirty minutes after dosing the test compound, rats were gavaged with water at 30 ml/kg into the stomach using a feeding needle. During the test, rats were not provided with water or food. Urine was collected for four hours after dosing of the test compound. At the end of four hours, urine volume was measured. Urinary osmolality was determined using a Fiske One-Ten Osmometer (Fiske Associates, Norwood, Mass., 02062) or an Advanced CRYOMATIC Osmometer, Model 3C.2 (Advanced Instruments, Norwood, Mass.). Determinations of Na^+, K^+ and Cl^− ion were carried out using ion specific electrodes in a Beckman SYNCHRON EL-ISE Electrolyte System analyzer. The urinary osmolality should increase proportionally. In the screening test, two rats were used for each compound. If the difference in the urine volume of the two rats was greater than 50%, a third rat was used.

SMILES | Osmolality (% Increase) (Vasopressin V2) | Urine Volume (% decrease) (Vasopressin V2) | melting point
Cc1noc(-c2ccc(C(=O)N3Cc4cccn4Cc4ccccc43)cc2)n1 [Example 52, [4-(3-Methyl[1,2,4]oxadiazol-5-yl)-phenyl]-(5H,11H-pyrrolo-[2,1-c][1,4]-benzodiazepin-10-yl)-methanone] | 261% | 66% | 177 to 179 °C
Cc1ccn(-c2ccc(C(=O)N3Cc4cccn4Cc4ccccc43)c(Cl)n2)n1 [Example 100, [2-Chloro-6-(3-methylpyrazol-1-yl)-pyridin-3-yl]-(5H,11H-pyrrolo[2,1-c][1,4]benzodiazepin-10-yl)-methanone] | 248% | 24% | 171 to 172 °C
CC(=O)c1ccc(C(=O)N2Cc3cccn3Cc3ccccc32)c(Cl)c1 [Example 121, 1-[4-(5H,11H-pyrrolo[2,1-c][1,4]benzodiazepine-10-carbonyl)-3-chlorophenyl]-ethanone] | 155% | 22% | 98 to 100 °C
Cc1ccn(-c2ccc(C(=O)N3Cc4ccc(Br)n4Cc4ccccc43)c(Cl)c2)n1 [Example 88, (3-Bromo-5H,11H-pyrrolo[2,1-c][1,4]benzodiazepin-10-yl)-[2-chloro-4-(3-methyl-pyrazol-1-yl)-phenyl]-methanone] | 226% | 68% | 148 to 149 °C (dec.)
Cc1cnn(-c2ccc(C(=O)N3Cc4cccn4Cc4ccccc43)cc2)c1 [Example 60, [4-(4-Methyl-pyrazol-1-yl)-phenyl]-(5H,11H-pyrrolo[2,1-c][1,4]-benzodiazepin-10-yl)-methanone] | 165% | 54% | 179 to 181 °C
Cc1cn(-c2ccc(C(=O)N3Cc4cccn4Cc4ccccc43)cc2)cn1 [Example 64, [4-(4-Methyl-imidazol-1-yl)-phenyl]-(5H,11H-pyrrolo[2,1-c][1,4]-benzodiazepin-10-yl)-methanone] | 349% | 79% | 140 to 145 °C
O=C(c1ccc(-n2ccnc2)cc1)N1Cc2cccn2Cc2ccccc21 [Example 63, [4-(Imidazol-1-yl)-phenyl]-(5H,11H-pyrrolo[2,1-c][1,4]benzodiazepin-10-yl)-methanone] |  |  | 171 to 172 °C
Cn1cc(-c2ccc(C(=O)N3Cc4cccn4Cc4ccccc43)cn2)cn1 [Example 57, [6-(1-Methyl-1H-pyrazol-4-yl)-pyridin-3-yl]-(5H,11H-pyrrolo[2,1-c][1,4]-benzodiazepin-10-yl)-methanone] | 288% | 77% | 173 to 175 °C
Cc1ncn(-c2ccc(C(=O)N3Cc4cccn4Cc4ccccc43)c(Cl)c2)n1 [Example 102, [2-Chloro-4-(3-methyl-1,2,4-triazol-1-yl)-phenyl](5H,11H-pyrrolo[2,1-c]-[1,4]benzodiazepin-10-yl)-methanone] |  |  | 191 to 193 °C
Cc1ccn(-c2ccc(C(=O)O)c(Cl)c2)n1 [Example 97, 2-Chloro-4-(3-methyl-1H-pyrazol-1-yl)-benzoic Acid] | 106% | 3% | 192 to 193 °C
Cc1ccn(-c2ccc(C(=O)N3Cc4cccn4Cc4ccccc43)c(F)c2)n1 [Example 92, [2-Fluoro-4-(3-methyl-pyrazol-1-yl)-phenyl]-(5H,11H-pyrrolo[2,1-c][1,4]-benzodiazepin-10-yl)-methanone] | 454% | 69% | 192 to 193 °C
Cc1ccn(-c2ccc(C(=O)N3Cc4ccc(C)n4Cc4ccccc43)c(Cl)c2)n1 [Example 18, [2-Chloro-4-(3-methylpyrazol-1-yl)-phenyl]-(3-methyl-5H,11H-pyrrolo[2,1-c][1,4]benzodiazepin-10-yl)-methanone] | 214% | 52% | 178 to 180 °C
Cc1ccn(-c2ccc(C(=O)N3Cc4ccc(CN(C)C)n4Cc4ccccc43)c(Cl)c2)n1 [Example 87, [2-Chloro-4-(3-methyl-pyrazol-1-yl)-phenyl]-(3-dimethylaminomethyl-5H,11H-pyrrolo[2,1-c][1,4]benzodiazepin-10-yl)-methanone] | 214% | 71% | 100 to 102 °C
Cc1nc(-c2ccc(C(=O)N3Cc4cccn4Cc4ccccc43)cc2)n(C)n1 [Example 51, [4-(2,5-Dimethyl-2H-[1,2,4]triazol-3-yl)-phenyl]-(5H,11H-pyrrolo[2,1-c]-[1,4]benzodiazepin-10-yl)-methanone] |  | 72% | 193 to 195 °C
O=C(c1ccc(-c2ccn(C(=O)c3ccc(F)cc3Cl)n2)cc1)N1Cc2cccn2Cc2ccccc21 [Example 37, {4-[1-(2-Chloro-4-fluoro-benzoyl)-1H-pyrazol-3-yl]-phenyl}-(5H,11H-pyrrolo[2,1-c][1,4]benzodiazepin-10-yl}methanone] | 370% | 71% | 150 to 157 °C
NC(=O)c1ccc(C(=O)N2Cc3cccn3Cc3ccccc32)c(Cl)c1 [Example 79, 3-Chloro-4-(5H,11H-pyrrolo[2,1-c][1,4]benzodiazepine-10-carbonyl)-benzamide] | 123% | 38% | 211 to 212 °C
CCCC(=O)n1ccc(-c2ccc(C(=O)N3Cc4cccn4Cc4ccccc43)cc2)n1 [Example 33, 1-{3-[4-(5H,11H-Pyrrolo[2,1-c][1,4]benzodiazepine-10-carbonyl)-phenyl]-pyrazol-1-yl}-butan-1-one] | 362% | 68% | 105 to 110 °C
O=C(c1ccc(-n2cccn2)nc1Cl)N1Cc2cccn2Cc2ccccc21 [Example 99, (2-Chloro-6-pyrazol-1-yl-pyridin-3-yl)-(5H,11H-pyrrolo[2,1-c][1,4]benzodiazepin-10-yl)-methanone] | 205% | 43% | 133 to 135 °C
O=C(c1ccc(-c2ncn[nH]2)cc1Cl)N1Cc2cccn2Cc2ccccc21 [Example 83, [2-Chloro-4-(2H-1,2,4-triazol-3-yl)-phenyl]-(5H,11H-pyrrolo[2,1-c][1,4]-benzodiazepin-10-yl)-methanone] | 442% | 85% | 174 to 177 °C
Cn1cc(-c2ccc(C(=O)N3Cc4cccn4Cc4ccccc43)cc2)cn1 [Example 55, [4-(1-Methyl-1H-pyrazol-4-yl)-phenyl]-(5H,11H-pyrrolo[2,1-c][1,4]-benzodiazepin-10-yl)-methanone] | 164% | 80% | 200 to 201 °C
Cn1ccc(-c2ccc(C(=O)N3Cc4cccn4Cc4ccccc43)c(Cl)c2)n1 [Example 71, [2-Chloro-4-(1-methyl-1H-pyrazol-3-yl)-phenyl]-(5H,11H-pyrrolo[2,1-c]-[1,4]benzodiazepine-10-yl)-methanone] | 264% | 84% | 148.5 to 150 °C
O=C(c1ccc(-c2nnn[nH]2)cc1Cl)N1Cc2cccn2Cc2ccccc21 [Example 86, [2-Chloro-4-(1H-tetrazol-5-yl)-phenyl]-(5H,11H-pyrrolo[2,1-c][1,4]benzodiazepin-10-yl)-methanone] | 86% | 5% | 218 to 220 °C
O=C(O)c1ccc(C(=O)N2Cc3cccn3Cc3ccccc32)c(Cl)c1 [Example 78, 3-Chloro-4-(5H,11H-Pyrrolo[2,1-c][1,4]benzodiazepine-10-carbonyl)-benzoic Acid] | 115% | 21% | 198 to 199 °C
Cc1ncn(-c2ccc(C(=O)N3Cc4cccn4Cc4ccccc43)c(C(F)(F)F)c2)n1 [Example 103, [4-(3-Methyl-1,2,4-triazol-1yl)-2-trifluoromethyl-phenyl](5H,11H-pyrrolo[2,1-c][1,4]benzodiazepin-10-yl)-methanone] |  |  | 148 to 150 °C
